The values below come from patent US11608353B2, “Amylase inhibitor compounds, methods of their use and compositions thereof” (THE UNIVERSITY OF BRITISH COLUMBIA, priority 2016, dated 2023).

Residue numbers refer to the chain shown, from its start. Values joined by “and” are separate entries in the source; they are usually repeats but may differ in a detail not shown here. Equal entries are not always repeated. Where two headings read alike, the source gives them in different places.

In test [1] the target is T1, human pancreatic α-amylase (HPA) (Homo sapiens, UniProt P04746).
T1 construct: made in house; host or cells: Pichia pastoris strain GM5011
T1 sequence (P04746 16-511): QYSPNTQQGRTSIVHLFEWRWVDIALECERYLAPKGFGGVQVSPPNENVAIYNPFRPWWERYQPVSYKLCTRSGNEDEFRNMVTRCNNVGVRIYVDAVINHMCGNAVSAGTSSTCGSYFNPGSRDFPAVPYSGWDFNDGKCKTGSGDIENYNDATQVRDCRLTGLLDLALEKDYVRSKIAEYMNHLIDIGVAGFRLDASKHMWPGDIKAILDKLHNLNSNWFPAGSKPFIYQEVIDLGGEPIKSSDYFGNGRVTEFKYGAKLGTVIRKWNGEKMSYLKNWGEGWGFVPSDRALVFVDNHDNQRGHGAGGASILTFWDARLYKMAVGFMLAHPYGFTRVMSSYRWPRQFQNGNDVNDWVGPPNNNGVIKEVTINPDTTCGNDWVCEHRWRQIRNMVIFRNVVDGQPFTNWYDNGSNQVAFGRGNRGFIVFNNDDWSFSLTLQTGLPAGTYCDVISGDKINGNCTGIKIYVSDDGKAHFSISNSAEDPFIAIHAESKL
The test is described as follows: Inhibition of wild-type human pancreatic α-amylase (HPA), kinetic KI determination with CNP-G3. It counts as biochemical.

For the next test, the target named is T2, H299N HPA (Homo sapiens, UniProt P04746, H314N).
T2 construct: made in house; host or cells: Pichia pastoris strain GM5011
T2 sequence (P04746 16-511 H314N): T1 sequence (P04746 16-511) with H299N
Nature of the test: Inhibition of H299N variant HPA, kinetic KI determination. Type of test: biochemical. The conditions noted are these: variant used for co-crystallization; read-out: KI for inhibition of the H299N HPA variant enzyme. Here is the method: Kinetic Studies. The inhibition constants (KI) of montbretins A-E and MbA substructures for wild-type HPA, along with MbA for H299N HPA were determined by measuring the rates of reactions at different inhibitor and substrate concentrations. […] 2-Chloro-4-nitrophenyl α-D-maltotrioside (CNP-G3) was used as the substrate in a similar range of concentrations. Initial reaction rates for the release of chloronitrophenolate were measured and the further progress of substrate cleavage monitored continuously. Reactions were performed on a Varian Cary 4000 UV/Vis spectrophotometer at 400 nm and 30° C. Observed reaction rates were fitted directly to various inhibition models using GraFit version 5.0.13 and KI values were determined. Competitive inhibition provided the best fit in each case.

Test [2] deals with Roseburia inulinivorans Amy A (Roseburia inulinivorans, UniProt A0ACG1Y5C3). The test is described as follows: Inhibition of gut bacterial amylase Roseburia inulinivorans Amy A. Type of test: biochemical. The conditions noted are these: for Ki: GH family 13.
Roseburia inulinivorans Amy A, sequence (A0ACG1Y5C3 entry or part of it): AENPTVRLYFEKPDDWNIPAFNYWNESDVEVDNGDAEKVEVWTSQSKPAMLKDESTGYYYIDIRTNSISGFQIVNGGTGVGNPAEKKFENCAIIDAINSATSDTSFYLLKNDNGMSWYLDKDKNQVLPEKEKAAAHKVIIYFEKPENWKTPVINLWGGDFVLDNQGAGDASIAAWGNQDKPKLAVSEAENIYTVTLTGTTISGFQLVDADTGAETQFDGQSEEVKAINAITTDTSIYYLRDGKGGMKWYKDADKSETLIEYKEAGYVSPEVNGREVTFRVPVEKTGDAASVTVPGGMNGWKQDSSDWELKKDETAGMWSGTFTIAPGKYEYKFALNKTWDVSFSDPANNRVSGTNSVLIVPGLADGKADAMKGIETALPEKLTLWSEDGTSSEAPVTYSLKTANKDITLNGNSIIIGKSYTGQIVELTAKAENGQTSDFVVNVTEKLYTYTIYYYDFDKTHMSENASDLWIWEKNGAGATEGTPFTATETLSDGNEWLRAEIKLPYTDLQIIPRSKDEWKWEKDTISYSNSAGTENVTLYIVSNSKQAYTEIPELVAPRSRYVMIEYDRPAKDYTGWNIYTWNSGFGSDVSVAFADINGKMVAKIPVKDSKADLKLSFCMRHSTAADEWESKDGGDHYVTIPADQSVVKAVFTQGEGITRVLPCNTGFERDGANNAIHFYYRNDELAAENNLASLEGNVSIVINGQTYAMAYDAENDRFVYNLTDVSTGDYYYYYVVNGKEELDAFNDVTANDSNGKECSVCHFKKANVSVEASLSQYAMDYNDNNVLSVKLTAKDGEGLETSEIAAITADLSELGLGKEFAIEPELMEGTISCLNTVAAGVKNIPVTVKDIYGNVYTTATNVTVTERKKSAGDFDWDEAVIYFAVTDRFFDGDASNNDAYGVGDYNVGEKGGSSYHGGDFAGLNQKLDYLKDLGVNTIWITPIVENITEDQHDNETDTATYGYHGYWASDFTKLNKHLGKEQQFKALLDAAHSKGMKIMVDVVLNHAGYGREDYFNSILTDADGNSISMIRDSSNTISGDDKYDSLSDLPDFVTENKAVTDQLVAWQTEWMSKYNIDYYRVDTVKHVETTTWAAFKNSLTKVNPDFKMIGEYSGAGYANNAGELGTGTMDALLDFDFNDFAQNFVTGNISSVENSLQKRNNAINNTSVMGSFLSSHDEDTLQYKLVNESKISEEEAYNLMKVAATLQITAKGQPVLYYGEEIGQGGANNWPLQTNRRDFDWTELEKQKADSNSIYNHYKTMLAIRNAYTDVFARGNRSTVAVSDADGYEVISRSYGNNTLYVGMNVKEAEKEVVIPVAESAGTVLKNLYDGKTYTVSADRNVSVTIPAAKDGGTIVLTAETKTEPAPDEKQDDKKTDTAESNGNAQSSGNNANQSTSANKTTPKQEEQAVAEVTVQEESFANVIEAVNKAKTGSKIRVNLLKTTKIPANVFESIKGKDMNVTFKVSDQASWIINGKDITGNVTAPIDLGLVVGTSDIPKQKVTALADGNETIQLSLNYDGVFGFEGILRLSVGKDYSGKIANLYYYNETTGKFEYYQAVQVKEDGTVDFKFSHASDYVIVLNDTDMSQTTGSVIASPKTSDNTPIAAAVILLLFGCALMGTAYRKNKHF
Test [3] deals with Butyrivibrio fibrisolvens Amy B. The test is described as follows: Inhibition of gut bacterial amylase Butyrivibrio fibrisolvens Amy B. Type of test: biochemical.
In a further test the target is T3, Homo sapiens ntMGAM (Homo sapiens, UniProt O43451).
T3 construct: Homo sapiens ntMGAM
T3 sequence (O43451 356-737 limits assumed): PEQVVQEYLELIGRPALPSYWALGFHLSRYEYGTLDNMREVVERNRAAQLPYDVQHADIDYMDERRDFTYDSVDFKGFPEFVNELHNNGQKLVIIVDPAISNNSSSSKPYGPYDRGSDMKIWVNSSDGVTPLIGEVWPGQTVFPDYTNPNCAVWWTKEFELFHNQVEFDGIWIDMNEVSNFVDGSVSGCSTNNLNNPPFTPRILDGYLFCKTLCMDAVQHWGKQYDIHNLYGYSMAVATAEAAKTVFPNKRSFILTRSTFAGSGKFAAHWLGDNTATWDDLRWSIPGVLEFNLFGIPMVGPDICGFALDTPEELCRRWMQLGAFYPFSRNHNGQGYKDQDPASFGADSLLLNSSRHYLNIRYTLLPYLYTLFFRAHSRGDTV
Nature of the test: Inhibition of N-terminal domain of maltase glucoamylase. Type of test: biochemical. As to conditions: for Ki: GH family 31.

The target in the next test is T4, H. sapiens ctMGAM (Homo sapiens, UniProt O43451).
T4 construct: H. sapiens ctMGAM
T4 sequence (O43451 1221-1632 limits assumed): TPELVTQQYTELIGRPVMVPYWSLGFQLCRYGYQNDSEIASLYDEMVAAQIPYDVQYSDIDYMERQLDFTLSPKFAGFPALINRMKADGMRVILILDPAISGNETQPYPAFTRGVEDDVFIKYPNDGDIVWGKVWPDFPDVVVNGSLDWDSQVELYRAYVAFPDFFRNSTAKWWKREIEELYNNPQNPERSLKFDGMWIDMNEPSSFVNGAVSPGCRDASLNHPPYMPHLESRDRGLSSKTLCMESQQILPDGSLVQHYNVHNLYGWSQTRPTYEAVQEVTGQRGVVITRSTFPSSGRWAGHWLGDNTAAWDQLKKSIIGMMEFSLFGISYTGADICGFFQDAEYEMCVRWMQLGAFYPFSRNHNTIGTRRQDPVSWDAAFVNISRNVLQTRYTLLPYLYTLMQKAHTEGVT
Nature of the test: Inhibition of C-terminal domain of maltase-glucoamylase. It counts as biochemical. The conditions noted are these: for Ki: GH family 31.

In the next test the target is T5, H. sapiens ctSI (Homo sapiens, UniProt P14410).
T5 construct: H. sapiens ctSI
T5 sequence (P14410 1008-1827 limits assumed): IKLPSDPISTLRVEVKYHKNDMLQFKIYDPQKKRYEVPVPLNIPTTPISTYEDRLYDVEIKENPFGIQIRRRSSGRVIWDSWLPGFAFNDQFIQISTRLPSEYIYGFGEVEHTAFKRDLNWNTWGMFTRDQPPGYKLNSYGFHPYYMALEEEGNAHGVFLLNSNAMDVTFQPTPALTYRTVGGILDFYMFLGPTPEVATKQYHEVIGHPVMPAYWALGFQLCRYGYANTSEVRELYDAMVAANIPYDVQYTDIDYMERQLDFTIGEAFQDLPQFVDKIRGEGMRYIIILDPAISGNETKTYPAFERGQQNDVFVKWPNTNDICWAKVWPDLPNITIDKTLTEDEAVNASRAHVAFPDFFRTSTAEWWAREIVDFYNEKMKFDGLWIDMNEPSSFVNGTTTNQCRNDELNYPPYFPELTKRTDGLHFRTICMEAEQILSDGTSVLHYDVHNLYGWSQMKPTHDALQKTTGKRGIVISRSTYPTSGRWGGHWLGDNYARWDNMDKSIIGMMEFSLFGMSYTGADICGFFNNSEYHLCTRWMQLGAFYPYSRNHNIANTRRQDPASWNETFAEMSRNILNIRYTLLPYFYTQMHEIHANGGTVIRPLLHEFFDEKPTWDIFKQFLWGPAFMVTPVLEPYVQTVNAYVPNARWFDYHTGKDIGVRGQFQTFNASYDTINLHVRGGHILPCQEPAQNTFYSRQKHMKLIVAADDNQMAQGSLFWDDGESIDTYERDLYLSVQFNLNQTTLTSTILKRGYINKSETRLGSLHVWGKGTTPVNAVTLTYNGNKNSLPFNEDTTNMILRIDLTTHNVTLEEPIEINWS
The test is described as follows: Inhibition of C-terminal domain of sucrose-isomaltase. It counts as biochemical.

Test [4] has as its target T1, human pancreatic α-amylase (HPA). The conditions noted are these: literature value, reference (5); read-out: Ki, binds to HPA; cited from earlier work.
A further test has as its system diabetic rat model. The conditions noted are these: McNeill, unpublished data; cited from earlier work.
[5] abbreviates: Tables 4 and 5, read-out: Ki (HPA Inhibition).
[6] abbreviates: Table 6, GH family 13, mean ± s.d., read-out: Ki (nM), HPA.
The mark [7] stands for this setting: wild-type HPA, CNP-G3 substrate, pH 7.0, 30° C., competitive inhibition model, read-out: Ki of HPA.
Setting [8] is: tested at 500 μM, read-out: Ki with MbA.
Where [9] appears, read: tested at 100 μM, read-out: Ki With MbA-GRX.

Regarding Montbretin D [MbD], in test [1], the “inhibitory activity against HPA (in words)” value is recorded as “poor inhibitory activity”.

Regarding `O=C(/C=C/c1ccc(O)c(O)c1)NCCCCCCCOc1c(-c2ccc(O)c(O)c2)oc2cc(O)cc(O)c2c1=O` [Compound 05], the Ki (in general, the dissociation constant of the complex between target and ligand, obtained from inhibition or displacement) in test [1] (setting [5]) was found to be 4000 nM.

For the molecule montbretin A [MbA], the inhibition constant (Ki) in test [1] (setting [6]) was 8.1 nM; in [1] (setting [5]), 8 nM; in [1] (setting [7]), 4.4 nM; on H299N HPA it was 124 nM; in [2] (setting [8]), more than 500000 nM; in [3], 1600 nM. In addition, the inhibitory constant (Ki) at Homo sapiens ntMGAM (setting [8]) was more than 500000 nM; at H. sapiens ctMGAM (setting [8]) it was more than 500000 nM; at H. sapiens ctSI (GH family 31, tested at 500 μM, read-out: Ki with MbA), more than 500000 nM; in test [4], 8 nM. Further, the “inhibition of gut bacterial amylase (in words)” value in test [2] was “not inhibited at all”. Besides, the “inhibition of human maltase-glucoamylase (MGAM) (in words)” value on Homo sapiens ntMGAM (concentrations up to 500 μM) and at H. sapiens ctMGAM (concentrations up to 500 μM) was “Neither the human maltase-glucoamylase (MGAM) nor the human sucrose isomaltase (SI) was inhibited” in each case. For the same molecule, the “inhibition of human sucrose isomaltase (SI) (in words)” value against H. sapiens ctSI (concentrations up to 500 μM) is listed as “Neither the human maltase-glucoamylase (MGAM) nor the human sucrose isomaltase (SI) was inhibited”. Further, the “reducing postprandial glucose spiking and delaying the onset of diabetes” value in the test with diabetic rat model is listed as “superior to other inhibitors”.

As for `O=C(/C=C/c1ccc(O)c(O)c1)N[C@@H]1[C@H](O)[C@@H](O)[C@H](O[C@H]2[C@H](O)[C@@H](O)[C@H](Oc3c(-c4ccc(O)c(O)c4)oc4cc(O)cc(O)c4c3=O)O[C@@H]2CO)O[C@@H]1CO` [12 (4-aminoGal)], in [1] (setting [5]), the Ki was 45000 nM.

As for montbretin B [MbB], the “decrease in inhibitory activity” value in [1] (relative to MbA, reference (5)) is given as approximately 1000 ×.

On to Montbretin E [MbE], for which the “inhibitory activity against HPA (in words)” value in test [1] is “poor inhibitory activity”.

In the case of `CC1O[C@@H](Oc2c(-c3cc(O)c(O)c(O)c3)oc3cc(O)cc(O)c3c2=O)C(O[C@@H]2OC(COC(=O)/C=C/c3ccc(O)c(O)c3)[C@@H](O)[C@@H](O)C2O)[C@@H](O)[C@H]1O` (stereo partly drawn) [MbA-1GRX], the Ki in [1] (setting [6]) was 93.3 ± 7.6 nM; in test [1] (setting [7]) it was 93 nM and 93.3 nM; in [2] (setting [9]) it was more than 100000 nM; on Homo sapiens ntMGAM (setting [9]) it was more than 100000 nM; on H. sapiens ctMGAM (setting [9]), more than 100000 nM. In addition, in test [1] (relative to MbA (KI=4.4 nM)), the “poorer at binding to the active site of HPA than the full structure of MbA” value is approximately 25 ×. Moreover, the “inhibition of maltase-glucoamylase (in words)” value on Homo sapiens ntMGAM (MbA-GRX) and against H. sapiens ctMGAM (MbA-GRX) was “No inhibition” in each case. In addition, on H. sapiens ctSI, the IC50 (as a rule, the concentration at which inhibition is half-maximal) is 75500 nM.

For the molecule `CC1O[C@@H](Oc2c(-c3cc(O)c(O[C@@H]4OC[C@@H](O)C(O)C4O)c(O)c3)oc3cc(O)cc(O)c3c2=O)C(O[C@@H]2OC(COC(=O)/C=C/c3ccc(O)c(O)c3)[C@@H](O)C(O)C2O)C(O)[C@H]1O` (stereo partly drawn) [MbA-1GR], in test [1] (setting [7]), the Ki is 79 nM and 79.3 nM.

As to `O=C(/C=C/c1ccc(O)c(O)c1)NCCOCCOCCOc1c(-c2ccc(O)c(O)c2)oc2cc(O)cc(O)c2c1=O` [Compound 02], the Ki in [1] (setting [5]) was 82000 nM.

Take Quercetin/Myricetin: the Ki in [1] (setting [5]) worked out at 100000 nM.

Take `O=C(/C=C/c1ccc(O)c(O)c1)NC[C@H]1O[C@@H](O[C@H]2[C@H](O)[C@@H](O)[C@H](Oc3c(-c4ccc(O)c(O)c4)oc4cc(O)cc(O)c4c3=O)O[C@@H]2CO)[C@H](O)[C@@H](O)[C@@H]1O` [11 (6-aminoGlc)]: the Ki in [1] (setting [5]) turned out to be 70000 nM.

Consider montbretin C [MbC], for which, in test [1] (relative to MbB), the “lower inhibition for HPA than MbB” value was found to be 2 ×.

With `O=C(/C=C/c1ccc(O)c(O)c1)NCCCOc1c(-c2ccc(O)c(O)c2)oc2cc(O)cc(O)c2c1=O` [Compound 03], the Ki in test [1] (setting [5]) came out at 145000 nM.

On to `CC1O[C@@H](Oc2c(-c3cc(O)c(O)c(O)c3)oc3cc(O)cc(O)c3c2=O)C(O[C@@H]2OC(COC(=O)/C=C/c3ccc(O)c(O)c3)[C@@H](O)[C@@H](O)C2O[C@@H]2OC(CO)[C@@H](O)[C@@H](O)C2O)[C@@H](O)[C@H]1O` (stereo partly drawn) [MbA-RX], for which the Ki in test [1] (setting [7]) was 43 nM and 42.4 nM.
